Values of other authors as cited in patent US20120277197A1, “TIGECYCLINE FORMULATIONS” (WYETH, priority 2008, published 2012).

Conditions: cited from earlier work; for activity retained after frozen storage: after 14-23 days of frozen storage

Compound	activity retained after frozen storage	further results
CC1(C)S[C@@H]2[C@H](NC(=O)[C@H](N)c3ccc(O)cc3)C(=O)N2[C@H]1C(=O)O [amoxycillin sodium]	–	stability on freezing solutions (in normal saline or in glucose): markedly reduced stability
CC1(C)S[C@@H]2[C@H](NC(=O)C(C(=O)O)c3ccccc3)C(=O)N2[C@H]1C(=O)O (some centres unmarked) [carbenicillin]	retained essentially all of their activity	–
CC(=O)OCC1=C(C(=O)O)N2C(=O)[C@@H](NC(=O)Cc3cccs3)[C@H]2SC1 [cephalothin]	retained essentially all of their activity	–
C[C@@H](O)[C@H]1C(=O)N2C(C(=O)O)=C(S[C@@H]3CN[C@H](C(=O)Nc4cccc(C(=O)O)c4)C3)[C@H](C)[C@H]12 [ertapenem]	–	stability of solutions frozen at −20° C. (frozen at −20° C.): extreme variability in stability
penicillin	retained essentially all of their activity	–
